# Data from publication PMC4911292 (Clinical cancer research : an official journal of the …, 2016).
# What was measured:
# [1] = design: species or system human; settings: in vivo
# [2] = test system: pretreated metastatic breast cancer; settings: single agent; cited from earlier work
# [3] = Veliparib pharmacokinetics in plasma and urine; format: in vivo, human
# [4] = test system: advanced triple-negative breast cancer and/or BRCA mutation-associated breast cancer; assay: Preliminary efficacy; format: in vivo, human; settings: veliparib with cisplatin and vinorelbine
# [5] = test system: patients with recurrent and/or metastatic TNBC and/or BRCA mutation-associated breast cancer
# CYP enzymes = settings: cited from earlier work
# P-glycoprotein (P-gp) = settings: cited from earlier work
# [6] = test system: germline BRCA mutation-associated cancer; settings: monotherapy throughout a 28-day cycle; cited from earlier work
# PARP = settings: at lower doses; cited from earlier work
# [7] = cited from earlier work
# [8] = germline BRCA1 and BRCA2 wild-type, n=26
# [9] = germline BRCA1 or BRCA2 mutation positive, n=14
# [10] = N=50, veliparib with cisplatin and vinorelbine, any time during study
# [11] = veliparib monotherapy, 23 patients
# [12] = veliparib with cisplatin and vinorelbine, N=50
compound,measurement,setting,value
N.N.[Cl][Pt][Cl] [cisplatin],Median C4/C1 ratio for ultrafilterable platinum AUC0-24,[1],0.98
same,Median C4/C1 ratio for ultrafilterable platinum Cmax,[1],0.99
same,Response rate,[2],less than 10%
C[C@]1(c2nc3c(C(N)=O)cccc3[nH]2)CCCN1 [veliparib],Proportion of the first dose excreted in the urine over 12 hours (median),"[3]; cycle 1, N=20",61.7%
same,Proportion of the first dose excreted in the urine over 12 hours (median),"[3]; cycle 4, N=20",66.7%
same,Median C4/C1 ratio of Cmax,"[3]; cycle 4 day 1 vs cycle 1 day 0, N=32, range 0.36-2.00",0.85
same,Median C4/C1 ratio of AUC0-6,"[3]; cycle 4 day 1 vs cycle 1 day 0, N=32, range 0.44-1.64",0.82
same,Best overall response: complete response,[4]; 48 patients,4%
same,Progressive disease as best response or not assessed due to disease or toxicity,[4]; 48 patients,21%
same,Stable disease as best response,[4]; 48 patients,44%
same,"Overall response rate (CR+PR, confirmed)","[4]; 48 patients, 95% CI 23%-50%",35%
same,Response (CR+PR),[4]; BRCA mutation present,57%
same,Median progression-free survival,"[4]; all 50 patients, 95% CI 4.1-6.7",5.5 months
same,Median overall survival,"[4]; all patients, 95% CI 8.1-20.7",9.6 months
same,Best overall response: Complete response (CR),[4]; [8],1 (4%) n(%)
same,Best overall response: Partial response (PR),[4]; [8],7 (27%) n(%)
same,Best overall response: Progressive disease (PD),[4]; [8],6 (23%) n(%)
same,Best overall response: Complete response (CR),[4]; [9],1 (7%) n(%)
same,Best overall response: Partial response (PR),[4]; [9],7 (50%) n(%)
same,Best overall response: Progressive disease (PD),[4]; [9],1 (7%) n(%)
same,Clinical benefit (PFS6) rate,[4]; [9],10 (71%) n(%)
same,Median OS,[4]; germline BRCA mutation,22.6 months
same,Median PFS,[4]; germline BRCA mutation,9.2 months
same,6-month progression-free survival (PFS6),[4]; germline BRCA mutation absent,30%
same,6-month progression-free survival (PFS6),[4]; germline BRCA mutation present,71%
same,Median PFS,[4]; germline BRCA wild-type,4.2 months
same,Best overall response: Complete response (CR),"[4]; total, n=48",2 (4%) n(%)
same,Best overall response: Partial response (PR),"[4]; total, n=48",15 (31%) n(%)
same,Best overall response: Progressive disease (PD),"[4]; total, n=48",10 (21%) n(%)
same,Best overall response: Partial response (PR),"[4]; unknown mutation status, n=8",1(12%) n(%)
same,Best overall response: Progressive disease (PD),"[4]; unknown mutation status, n=8",3 (38%) n(%)
same,Clinical benefit (PFS6) rate,"[4]; unknown mutation status, n=8",2 (25%) n(%)
same,Median OS,[4]; unknown mutational status,6.2 months
same,Median PFS,[4]; unknown mutational status,4.0 months
same,Dose limiting toxicity,"[5]; 40 mg dose level, with cisplatin and vinorelbine, one patient, bone marrow involvement of breast cancer",grade 4 thrombocytopenia
same,"Anemia, All grades",[5]; [10],32 (64%) N (%)
same,"Anorexia, All grades",[5]; [10],17 (34%) N (%)
same,"Dehydration, All grades",[5]; [10],17 (34%) N (%)
same,"Dyspepsia, All grades",[5]; [10],11 (22%) N (%)
same,"Fatigue, All grades",[5]; [10],40 (80%) N (%)
same,"Hypokalemia, All grades",[5]; [10],13 (26%) N (%)
same,"Nausea, All grades",[5]; [10],43 (86%) N (%)
same,"Neutrophil count decreased, All grades",[5]; [10],31 (62%) N (%)
same,"Peripheral sensory neuropathy, All grades",[5]; [10],21 (42%) N (%)
same,"Platelet count decreased, All grades",[5]; [10],33 (66%) N (%)
same,"Tinnitus, All grades",[5]; [10],26 (52%) N (%)
same,"Vomiting, All grades",[5]; [10],21 (42%) N (%)
same,Recommended phase II dose (RP2D),[5]; in combination with cisplatin and vinorelbine,300 mg BID
same,Patients reporting AEs on monotherapy,[5]; veliparib monotherapy,Six of 23
same,"Dyspepsia, any grade",[5]; [11],17%
same,"Nausea, any grade",[5]; [11],17%
same,"Vomiting, any grade",[5]; [11],17%
same,Grade 3/4 anemia,[5]; [12],30%
same,Grade 3/4 neutropenia,[5]; [12],36%
same,Grade 3/4 thrombocytopenia,[5]; [12],12%
same,Inhibition or induction of major CYP enzymes,CYP enzymes,does not appear to inhibit or induce the activity of major CYP enzymes
same,Share of oral clearance accounted for by CYP2D6,CYP enzymes,~ 18%
same,Share of oral clearance accounted for by additional liver metabolism,CYP enzymes,10%
same,Inhibition or induction of P-gp,P-glycoprotein (P-gp),does not appear to inhibit or induce P-gp
same,P-gp substrate status,P-glycoprotein (P-gp),weak P-glycoprotein (P-gp) substrate
same,Current RP2D as monotherapy,[6],400 mg BID
same,PARP inhibition by PAR assay,PARP,90%
CCC1=C[C@@H]2CN(C1)Cc1c([nH]c3ccccc13)[C@@](C(=O)OC)(c1cc3c(cc1OC)N(C)[C@H]1[C@@](O)(C(=O)OC)[C@H](OC(C)=O)[C@]4(CC)C=CCN5CC[C@]31[C@@H]54)C2 [vinorelbine],"Renal excretion, share of the administered dose",[7],approximately 10%
